In PubChem BioAssay AID1626 (SRMLSC, 2009):

System: M. tuberculosis H37Rv growth inhibition
Experiment: M. tuberculosis H37Rv growth inhibitors, H37Rv strain (AID 1626)
Conditions: for IC90: measured here: IC90 against H37Rv; for CC50: measured here: Vero cell cytotoxicity

SMILES | IC50 [µM] | IC90 [µM] | CC50 [µM]
CCOCCOC(=O)COc1ccc2c(-c3ccccc3)cc(=O)oc2c1 | 1.28 | 4.32 | 
Cc1ccc(NCCC(=O)c2cccs2)cc1Cl | 34.6 | > 100 | 
CCOc1ccc(NC2c3ccccc3C(=O)N2Cc2ccco2)cc1 (centres undefined) | 19.1 | > 100 | 
O=C(c1ccccc1)C1CN(Cc2ccccc2)CCC1(O)c1ccccc1 (centres undefined) | 24.8 | 28.2 | 
CCCN(CCC)C(=O)c1cc([N+](=O)[O-])cc2c1-c1ccc([N+](=O)[O-])cc1C2=C(C#N)C#N | 8 | 9.91 | 33.6
CCc1ccc(Nc2c([N+](=O)[O-])c(=O)oc3ccccc23)cc1 |  | > 100 | > 40
O=c1cc(-c2c(F)c(F)c(F)c(F)c2F)oc2ccccc12 | 0.221 | 2.3 | > 40
CCOC(=O)c1ccc(NC(=O)CCc2nc(-c3ccc(Cl)cc3)no2)cc1 | 0.898 | 18.4 | 
O=C(Oc1ccc2ccc(O)cc2c1)C1CCCCC1 |  | > 100 | 
Cc1cc(C(=O)c2ccc(C(C)(C)C)cc2)c(NC(=O)CCl)s1 | 19.5 | > 100 | 27.2
CCOC(=O)c1ccc(N/C=C/C(=O)c2ccc(OC)c(OC)c2)cc1 | 3.44 | > 100 | 
Cc1cc(=O)oc2cc(OC(=O)c3ccco3)ccc12 | 61.6 | > 100 | 
O=C(Nc1ccc2oc(-c3cccnc3)nc2c1)c1ccc([N+](=O)[O-])o1 | < 0.195 | > 100 | 1.32
CCC(C)c1ccc(NC(=O)COC(=O)C2=COCCO2)cc1 (centres undefined) | 4.54 | > 100 | 
CC(Oc1ccc2oc3ccccc3c2c1)C(=O)NC12CC3CC(CC(C3)C1)C2 (centres undefined) | 44.7 | > 100 | 
COc1cccc2sc(Nc3nc(-c4ccccn4)cs3)nc12 | < 0.195 | < 0.195 | 1.92
CCOC(=O)c1cnc(-n2nc(C)cc2C)nc1Nc1ccc(N(C)C)cc1 | < 0.195 | < 0.195 | 23.9
O=C(COC(=O)c1ccc(-c2ccc([N+](=O)[O-])cc2)o1)NC(=O)NC12CC3CC(CC(C3)C1)C2 | 10.3 | > 100 | 
O=C1c2cccc3c(N4CCOCC4)c([N+](=O)[O-])cc(c23)C(=O)N1c1cccc2ccccc12 | 5.97 | 6.82 | > 40
CCCOC(=O)c1ccc(NC(=O)Oc2ccccc2)cc1 | 4.53 | > 100 | 
O=C(Nc1ccc(CSc2ccccc2)cc1)c1ccc(CN2CCOCC2)cc1 | 32.2 | > 100 | > 40

SMILES | IC50 [µM] | IC90 [µM] | CC50 [µM]
CCn1cc(CNC(=O)c2cc([N+](=O)[O-])c(C)c([N+](=O)[O-])c2)cn1 | 0.547 | 0.874 | 
O=C(CCSc1ccccc1)Nc1nnc(-c2ccccc2)o1 |  | > 100 | 
CCCCCCCn1c(NC(=O)CC)nc2ccccc21 | < 0.195 | 1.58 | 29.2
COc1ccc(N=C(NN)c2ccc3ccccc3n2)cc1 | 54.6 | > 100 | 
Cc1ccc(CNCC(O)(c2ccccc2)c2ccc(Cl)cc2)cc1 (centres undefined) | 8.17 | 10.9 | > 40
CCOC(=O)C(C(=O)OCC)C1N=C(N)N=C2Oc3ccccc3N21 (centres undefined) | 17.1 | 36.7 | 
O=C(CSc1nccc(=O)[nH]1)Nc1ccc(Br)c(Cl)c1 | 40.6 | > 100 | 
CCN(CC)c1ccc(/C=C(/C#N)c2nc3ccccc3[nH]2)c(OC(C)C)c1 | 0.488 | 0.936 | > 40
O=C(Nc1nc(-c2ccccn2)cs1)c1cc(Cl)ccc1[N+](=O)[O-] | 0.87 | 2.24 | 2.24
CC(=O)Nc1sc2c(c1CN1CCN(c3ccc(F)cc3)CC1)CCCC2 | 13.2 | > 100 | > 40
COC(=O)CSc1nc2c(c(-c3ccco3)c1C#N)CCCC2 | 3.08 | 3.39 | 
Cc1cc(NC(=O)CSc2nc(C(C)C)nc3sc4c(c23)CCCC4)no1 | 11.2 | > 100 | > 40
CCOC(=O)c1ccc(NC(=O)CCc2nc(-c3ccccc3)no2)cc1 | 2.32 | > 100 | > 40
COc1cccc(C(=O)/C=C/c2ccc(OCC#N)c(OC)c2)c1 | 19.8 | > 100 | 12.4
Cc1ccc(C(C(=O)Nc2ccc3c(c2)OCO3)N(C)C(=O)/C=C\c2ccc3c(c2)OCO3)cc1 (centres undefined) | 45.5 | > 100 | 
CN(C)c1ccc(/C=C/C=C2/C(=O)NC(=O)N(c3ccccc3)C2=O)cc1 | 2.5 | 4.66 | > 40
Cc1scc(C(=O)NCc2ccco2)c1-c1ccccc1 | 2.81 | 9.77 | 
Cc1ccc(NC(=O)CCn2cnc3ccccc3c2=O)cc1Cl |  | > 100 | 
O=C(Nc1ncc(Cc2cccc(Cl)c2)s1)C1=NCCN1 | 6.98 | > 100 | > 40
CN(Cc1nc2ccccc2c(=O)[nH]1)Cc1nc2ccsc2c(=O)[nH]1 | 1.95 | 4.36 | 
CCOC(=O)c1ccccc1-n1c(C)cc(C2N=C(N)Nc3nc4ccccc4n32)c1C (centres undefined) | 11.5 | 13.7 | 
